Data on 2 molecules can be found in US20080045467A1, “Composition Containing Ginsenoside F1 Or Compound K For Skin External Application” (Amorepacific Corporation, priority 2004, published 2008).

One assay deals with MMP-2. In words: Inhibition of biosynthesis of MMP-2 in UVB-irradiated human keratinocyte (gelatin zymography). Type of assay: cell-based. As to conditions: 30 mJ/cm^2 UVB, 2 days, amount relative to control group = 100. On the procedure:
(§1) Human keratinocyte was cultured with a concentration of 10^4 cells/well in 24-well plate mediums, and 24 hours later they were irradiated with 30 mJ/cm^2 of UVB. Each medium was then exchanged with a new one containing the compound separated in either Example 1 or 2 at the densities of 0.1 ppm, 1 ppm or 10 ppm, respectively. After 2 days of cultivation, the supernatants were obtained and gelatin zymography was performed on the obtained supernatant to form MMP-2 and MMP-9. The amount of MMP-2 and MMP-9 thus formed was determined by densitometer for each medium, and was compared with the amount of MMP-2 and MMP-9 in the control group, which was set as 100 (The mediums not containing the compounds in Examples 1 and 2 were cultured as a control group).

The subject of a further assay is MMP-9. In words: Inhibition of biosynthesis of MMP-9 in UVB-irradiated human keratinocyte (gelatin zymography). As to conditions: 30 mJ/cm^2 UVB, 2 days, amount relative to control group = 100. The assay is classed as cell-based. As to the method:
as §1

The subject of another assay is Type IV collagen. In words: Biosynthesis of Type IV collagen in human keratinocyte (Dot Blot). Type of assay: cell-based. The conditions noted are these: 24 hours, control = 100. On the procedure:
Human keratinocyte was cultured with a concentration of 5×10^4 cells/well in 24-well plate mediums, and each medium was exchanged with a new one containing the compound separated in either example 1 or 2 at the densities of 0.1 ppm, 1 ppm or 10 ppm. After 24 hours of cultivation, the supernatants were harvested and the amount of Type IV collagen was quantified using Dot Blot method.

A further assay concerns Type VII collagen. Nature of the assay: Biosynthesis of Type VII collagen in human fibroblast (Dot Blot). The assay is classed as cell-based. As to conditions: 24 hours, control group = 100. On the procedure:
Human fibroblast was cultured with a concentration of 10^4 cells/well in 24-well plate mediums, and each medium was exchanged with a new one containing the compound separated in Example 1 or 2 at the densities of 0.1 ppm, 1 ppm or 10 ppm. After 24 hours of cultivation, the supernatants were harvested and the amount of Type VII collagen was quantified using Dot Blot method.

Another assay deals with laminin 10/11. In words: Biosynthesis of laminin 10/11 in human keratinocyte (Dot Blot). The assay is classed as cell-based. As to conditions: 24 hours, control group = 100. On the procedure:
Human keratinocyte was cultured with a concentration of 5×10^4 cells/well in 24-well plate mediums, and each medium was exchanged with a new one containing the compound separated in either Example 1 or 2 at the densities of 0.1 ppm, 1 ppm or 10 ppm. After 24 hours of cultivation, the supernatants were harvested and the amount of laminin 10/11 was quantified using Dot Blot method.

Assay [1] relates to epidermal-dermal junction. In words: Change in epidermal-dermal junction of UV-irradiated nude mouse (electron microscope). As to conditions: applied while irradiating with UV light, compared to comparative formulation 1. The assay is classed as in vivo. As to the method: In order to verify the change to the epidermal-dermal junction irradiated with UV light by the composition of the present invention, external applications with the formulation of nutrition cream were prepared according to the ratios in Table 5.
Each of the formulations 1˜3 and the comparative formulation 1 were applied to the back of each nude mouse 5 times in a week for 2 weeks, and for 12 weeks thereafter each of the formulations 1˜3 and the comparative formulation 1 were applied 5 times per week while irradiating UV light 3 times. After biopsy, the change of the epidermal-dermal junction was determined by electron microscope.

The structures appear in SMILES notation.

With `CC(C)=CCC[C@](C)(O[C@@H]1O[C@H](CO)[C@@H](O)[C@H](O)[C@H]1O)[C@H]1CC[C@]2(C)[C@@H]1[C@H](O)C[C@@H]1[C@@]3(C)CC[C@H](O)C(C)(C)[C@@H]3CC[C@]12C` [Example 2, 20-O-β-D-glucopyranosyl-20(S)-protopanaxadiol], the “MMP-2 (%)” value is recorded as 79% with MMP-2 (0.1 ppm), 61% with MMP-2 (1 ppm) and 48% in the assay on MMP-2 (10 ppm). In addition, the entries for the “MMP-9 (%)” value in the assay on MMP-9 (0.1 ppm), in the assay on MMP-9 (1 ppm) and in the assay with MMP-9 (10 ppm) were 78%, 62% and 49%, respectively. The “Biosynthesis of Type IV collagen (%)” value in the assay with Type IV collagen (0.1 ppm) was 119%; with Type IV collagen (1 ppm), 128%; in the assay with Type IV collagen (10 ppm) it was 139%. Also, the entries for the “Biosynthesis of Type VII collagen (%)” value in the assay on Type VII collagen (0.1 ppm), in the assay with Type VII collagen (1 ppm) and with Type VII collagen (10 ppm) were 120%, 135% and 146%, respectively. The “Biosynthesis of laminin 10/11 (%)” value with laminin 10/11 (0.1 ppm) is 115%; with laminin 10/11 (1 ppm), 125%; in the assay on laminin 10/11 (10 ppm), 137%. Besides, the “change, separation or multiplexing of the epidermal-dermal junction” value in assay [1] is reported as “little change, separation or multiplexing”.

For the molecule `CC(C)=CCC[C@](C)(O[C@@H]1O[C@H](CO)[C@@H](O)[C@H](O)[C@H]1O)[C@H]1CC[C@]2(C)[C@@H]1[C@H](O)C[C@@H]1[C@@]3(C)CC[C@H](O)C(C)(C)[C@@H]3[C@@H](O)C[C@]12C` [Example 1, 20-O-β-D-glucopyranosyl-20(S)-protopanaxatriol], the “MMP-2 (%)” value with MMP-2 (0.1 ppm) is 82%; in the assay with MMP-2 (1 ppm), 67%; in the assay on MMP-2 (10 ppm), 51%. In addition, the “MMP-9 (%)” value was 85% in the assay with MMP-9 (0.1 ppm), 69% in the assay with MMP-9 (1 ppm) and 55% with MMP-9 (10 ppm). Also, the “Biosynthesis of Type IV collagen (%)” value stood at 116% in the assay on Type IV collagen (0.1 ppm), 129% in the assay on Type IV collagen (1 ppm) and 134% in the assay on Type IV collagen (10 ppm). The “Biosynthesis of Type VII collagen (%)” value in the assay with Type VII collagen (0.1 ppm) came out at 118%; with Type VII collagen (1 ppm), 132%; in the assay on Type VII collagen (10 ppm) it was 141%. The results for the “Biosynthesis of laminin 10/11 (%)” value in the assay with laminin 10/11 (0.1 ppm), in the assay on laminin 10/11 (1 ppm) and in the assay on laminin 10/11 (10 ppm) were 112%, 125% and 134%, respectively. The “change, separation or multiplexing of the epidermal-dermal junction” value in assay [1] is recorded as “little change, separation or multiplexing”.
